Reference: patent US20210156865A1, “METHODS FOR ASSESSING EFFICACY OF MALT1 INHIBITORS USING AN NF-KB TRANSLOCATION ASSAY” (Janssen Pharmaceutica NV, priority 2019, published 2021)
Blank lines part the entries; values can stand above or below the compound they belong to.

Key:
CD4+ and CD8+ T cells = assay: CD69 expression on T cells from peripheral whole blood, imaging flow cytometry; type: cell-based, human; conditions: 200 μM overnight, anti-CD3 and anti-CD28 6 hours
Protocol: (§1) The solution was mixed by pipetting with a 1 mL pipette. The plates were incubated in a humidified incubator at 37° C. with 5% CO2 for an additional 6 hours.
The next day, blood was treated with anti-CD3 and anti-CD28 stimulatory antibodies for 6 hours as described in Example 1 or left untreated. After treatment with the stimulatory antibodies, the red blood cells were lysed using multi-species lysis buffer, and the white blood cells were stained with anti-CD4 and anti-CD8 antibodies to label T cells and an anti-CD69 antibody to measure early T cell activation. Frequency of CD69-positive T cells (CD4+ and CD8+) was measured by IFC.

[1] = system: NF-κB (p105/p50) nuclear translocation in CD4 and CD8 positive T cells; assay: NF-kB nuclear translocation in T cells from NHL peripheral whole blood; type: cell-based, human
Protocol: as §1
The staining solution was prepared by diluting Hoechst 33342 (Thermo Scientific, cat. #62249) to 10 nM and the p50 antibody (Clone 2J10D7; Novus, cat. #NB100-56583C) at 50 μg/mL in FACS buffer. The cells were incubated in the staining solution for 30 minutes at room temperature in the dark. The cells were washed by centrifugation at 1350 rpm for 5 minutes at room temperature, the supernatants were discarded, and the pellets were reconstituted in FACS buffer. The wash step was repeated twice, and the cells were resuspended in PBS at a final concentration of 5-20×10^6 cell/mL in 25 μL of PBS.
The samples were imaged on an AMNIS® […]® X Mark II imaging flow cytometer (MilliporeSigma, Burlington, Mass.) immediately, using 60× magnification, and the data was analyzed in IDEAS software using an internalization module, e.g., to evaluate frequency of CD4+ and CD8+ T cells or CLL cells with nuclear enrichment of p50.
The next day, the mixture samples were treated with anti-CD3 and anti-CD28 stimulatory antibodies following a procedure as that described in Example 1. […] Samples were analyzed on ImageStreamX to evaluate NF-κB nuclear localization in the CD4 and the CD8 positive T cells.

[2] = system: NF-κB (p105/p50) nuclear translocation in CD19-positive B (CLL) cells; assay: NF-κB nuclear translocation in B cells from CLL PBMCs, 30 min anti-IgM; type: cell-based, human; conditions: 6 hours compound, anti-IgM 30 minutes
Protocol: Alternatively, B cells can also be activated by beads coated with anti-IgM antibody. After the stimulation, PBMCs were fixed using CytoFix buffer and permeabilized using 0.1% Triton X-100 solution. Cells were then stained with anti-CD19 to label B (CLL) cells, Hoechst 33342 to label nuclei, and anti-p105/p50 to label NF-κB subunit. Samples were analyzed on ImageStreamX to evaluate NF-κB nuclear localization in the CD19-positive cells. […] Statistical significance was determined using Student's t-test in Microsoft Excel.

[3] = system: NF-kB nuclear localization in B (CLL) cells; assay: NF-κB nuclear translocation in CLL B cells, overnight incubation, 6 h anti-IgM; type: cell-based, human; conditions: CLL PBMC; overnight compound; anti-IgM 6 hours
Protocol: Cells were then treated with anti-IgM or left untreated for 6 hours. After stimulation, PBMC were fixed using CytoFix buffer and permeabilized using 0.1% Triton X-100 solution. Cells were then stained with anti-CD19 to label B (CLL) cells, anti-CD4 and anti-CD8 to label T cells, Hoechst 33342 to label nuclei, and anti-p105/p50 to label NF-kB subunit. Samples were analyzed on ImageStreamX to evaluate NF-kB nuclear localization in B cells or T cells. […] Statistical significance was determined using Student's t-test in Microsoft Excel.

[4] = system: peripheral blood of CLL patients; assay: Gene expression in whole blood of CLL patients (NanoString Pan-Cancer Immune Profiling); type: cell-based, human; conditions: 200 μM 24 hours, anti-CD3 and anti-CD28 four hours
Protocol: (§2) Peripheral blood was collected from three NHL and two CLL patients. […] Prior to stimulation and following stimulation, the treated blood was transferred into a PAXgene tube (Qiagen; Hilden, Germany) and RNA was extracted using the PAXgene RNA kit. Gene expression was measured using 100 ng of RNA extracted from the whole blood in the Pan-Cancer Immune Profiling kit (NanoString; Seattle, Wash.) according to the manufacturer's instructions.

[5] = system: peripheral blood of NHL patients; assay: Gene expression in whole blood of NHL patients (NanoString Pan-Cancer Immune Profiling); type: cell-based, human; conditions: 200 μM 24 hours, anti-CD3 and anti-CD28 four hours
Protocol: as §2

[6] = system: purified T-cells and PBMCs from NHL patients; assay: IL2 expression in purified T-cells and PBMCs from NHL patients; type: cell-based, human; conditions: T-cells and PBMC of NHL blood; 24 hours; CD3 and CD28 six hours
Protocol: The effect of a MALT inhibitor was analyzed utilizing gene expression signatures from purified T-cells and PBMCs from Non-Hodgkin's lymphoma patients. Peripheral blood was collected from five NHL patients, and the peripheral blood was allowed to stand overnight. Then, the peripheral blood was treated for 24 hours with a MALT inhibitor or DMSO control. The blood was then stimulated with monoclonal antibodies against CD3 and CD28 for six hours. Prior to stimulation and following stimulation, PBMC were purified from the treated blood using a ficoll density gradient and T-cells were purified using CD3 Beads (Miltenyi) using the manufacturers protocol. Purified cells were lysed in RLTplus (Qiagen) and RNA was extracted from the purified cells using an AllPrepkit (Qiagen). Gene expression was measured using 100 ng of RNA in the Pan-Cancer Immune Profiling kit (NanoString) according to the manufacturer's instructions.

[7] = system: purified T-cells and PBMCs from NHL patients; assay: Gene expression in T-cells and PBMCs purified from NHL blood without stimulation; type: cell-based, human; conditions: no stimulation, 24 hours
Protocol: Peripheral blood was collected from five NHL patients, and the peripheral blood was allowed to stand overnight. Then, the peripheral blood was treated for 24 hours with a MALT inhibitor or DMSO control. PBMCs were purified from the unstimulated blood using a ficoll density gradient and T-cells were purified using CD3 Beads (Miltenyi) using the manufacturers protocol. Purified cells were lysed in RLTplus (Qiagen) and RNA was extracted from the purified cells using an AllPrep kit (Qiagen). Gene expression was measured using 100 ng of RNA in the Pan-Cancer Immune Profiling kit (NanoString) according to the manufacturer's instructions. Gene expression signatures were compared between the MALT inhibitor treated and DMSO treated samples.

[8] = system: whole blood of NHL patients; assay: Gene expression signatures in NHL whole blood treated with lymphocyte-stimulating agents; type: cell-based, human; conditions: PMA-stimulated samples, 100 μM
Protocol: To obtain a robust gene signature of MALT1 inhibitor activity, whole blood of nine NHL patients which was stimulated with CD3/CD28, PMA/ionomycin, or PBS as a control was tested. Briefly, NHL donor blood was collected in 10 mL sodium heparin tubes and transported in refrigerated state (cold packs). […] Then, aliquots were stimulated with CD3 and CD28 antibodies (1 ug/ml each), PMA (20 ng/ml) and Ionomycin (1 μg/mL), or unstimulated (PBS) for four hours. Following stimulation, the treated blood was transferred into a PAXgene tube (Qiagen; Hilden, Germany) and RNA was extracted using the PAXgene RNA kit.
Gene expression was measured using 100 ng of RNA extracted from the whole blood in the Pan-Cancer Immune Profiling kit (NanoString; Seattle, Wash.) according to the manufacturer's instructions. Gene expression was normalized across samples using NanoString nSolver software. […] Briefly, log 2-scaled, normalized NanoString counts were fit to a linear model (which incorporated the patient of origin) and moderated t-statistics, along with the associated Benjamini-Hochberg (BH) corrected p-values, were computed by empirical Bayes moderation of the standard errors towards a common value.

[9] = system: CD79b-mutant DLBCL and ibrutinib-resistant DLBCL cell lines; assay: Growth of DLBCL cell lines in vitro; type: cell-based; conditions: ibrutinib-resistant with BTK C481S or CARD11 mutations
[10] = system: CD79b and CARD11-mutant ABC-DLBCL xenograft models; assay: ABC-DLBCL xenograft models in vivo
[11] = system: proteases, caspases, protein kinases, and G-protein-coupled receptors; assay: Binding inhibition panel at single dose; parameters: dose or concentration left out as unconfirmed
Oral bioavailability = conditions: in vivo
[12] = system: NF-κB proteins (p50 and RelB) in CLL cells; conditions: CLL cells treated in vitro; cited from earlier work
[13] = system: NF-κB target genes (CCND2, BCL2A, CCL3, CCL4, RGS1, and TNF) in CLL cells; conditions: CLL cells treated in vitro; cited from earlier work

IC50 ([1]; Homo sapiens, CD8 positive, overnight, CD3/CD28 stimulation 6 h, read-out: IC50, NFκB nuclear translocation in T cells): ~9.5 µM | oral bioavailability (Oral bioavailability): orally bioavailable
SMILES: O=C(Nc1ccnc(C(F)(F)F)c1)c1cnn(-c2cccc3c(=O)[nH]ccc23)c1C(F)(F)F [Compound A, 1-(1-oxo-1,2 dihydroisoquinolin-5-yl)-5 (trifluoromethyl)-N-[2 (trifluoromethyl)pyridin-4 yl]-1H-pyrazole-4 carboxamide]
surface expression of CD69 on T cells (CD4+ and CD8+ T cells; NHL blood): significantly inhibited | surface expression of CD69 on CD4+ and CD8+ T cells (CD4+ and CD8+ T cells; normal blood): not affected | NFκB nuclear translocation in T cells ([1]; CD3/CD28 stimulation, dosage dependent): completely blocked | NF-κB nuclear translocation in activated B cells [2]: inhibited | NF-κB nuclear translocation in B cells [3]: inhibited | stimulation induced upregulation of CXCL10 [4]: repressed | stimulation induced upregulation of CXCL10 [5]: repressed | stimulation induced upregulation of IL2 [6]: repressed | APOE expression ([7]; purified PBMCs): repressed | PYCARD expression ([7]; purified PBMCs): repressed | NF-κB2 expression ([7]; purified T-cells): repressed | TNFSF10 expression ([7]; purified T-cells): repressed | genes significantly upregulated [8]: no genes were significantly upregulated | gene expression at the specified cutoff levels ([8]; genes ICOS, POU2F2, CCR4, CTLA4): downregulated | growth of DLBCL cell lines [9]: inhibit growth | efficacy in xenograft models [10]: shown efficacy | binding inhibition of proteases, caspases, protein kinases, and G-protein-coupled receptors [11]: did not show significant binding inhibition

SMILES: COCCOc1nc(-c2ccc(Cl)c(Cl)c2)n(-c2ccc(NC(=O)CCl)cc2)n1 [MI-2]
nuclear translocation of NF-κB proteins [12]: suppress | expression of six known NF-κB target genes [13]: significantly reduce
